Assay results: US20240409505A1, “GLUCONAMIDE SULFATE SURFACTANTS” (The Procter & Gamble Company, priority 2023, published 2024)
Counter-ions that a name gives are not always drawn.

assay: Final product mixed with Deionized Water at room temperature; format: physicochemical; settings: 0.0130 g of final product mixed with 1.287 g of Deionized Water at room temperature
Description: Vacuum filtered solution through Grade 4 filter paper to obtain a clear, colorless solution. […] The solution was concentrated using a rotary evaporator until mixture began to foam, then solution was transferred to a glass crystallizing dish and placed in a vacuum oven at room temperature under a partial vacuum of 3 inches of Hg internal oven pressure.

Compound | appearance of mixture with Deionized Water (solubility)
CCCCCCCC/C=C\CCCCCCCCNC(=O)[C@H](O)[C@@H](O)[C@H](O)[C@H](O)COS(=O)(=O)O [Example 4, Sodium (2R,3R,4S,5R)-2,3,4,5-tetrahydroxy-6-(((Z)-octadec-9-en-1-yl)amino)-6-oxohexyl sulfate] | completely clear, colorless solution that foamed when shaken
O=C(NCc1ccccc1)[C@H](O)[C@@H](O)[C@H](O)[C@H](O)COS(=O)(=O)O [Example 7, Sodium (2R,3R,4S,5R)-6-(benzylamino)-2,3,4,5-tetrahydroxy-6-oxohexyl Sulfate] | completely clear, colorless solution that foamed when shaken
CCCCCCCCCCCCNC(=O)[C@H](O)[C@@H](O)[C@H](O)[C@H](O)COS(=O)(=O)O [Example 1, Sodium (2R,3R,4S,5R)-6-(dodecylamino)-2,3,4,5-tetrahydroxy-6-oxohexyl sulfate] | completely clear, colorless solution that foamed when shaken
CCCCCCCCCCCCCCNC(=O)[C@H](O)[C@@H](O)[C@H](O)[C@H](O)COS(=O)(=O)O [Example 2, Sodium (2R,3R,4S,5R)-6-(tetradecylamino)-2,3,4,5-tetrahydroxy-6-oxohexyl sulfate] | completely clear, colorless solution that foamed when shaken
Sodium (2R,3R,4S,5R)-6-((2-1H-indol-2-yl)ethyl) amino)-2,3,4,5-tetrahydroxy-6-Oxohexyl Sulfate [Example 8] | completely clear, colorless solution that foamed when shaken
CCCCCCCCCCCCCCCCNC(=O)[C@H](O)[C@@H](O)[C@H](O)[C@H](O)COS(=O)(=O)O [Example 3, Sodium (2R,3R,4S,5R)-6-(hexadecylamino)-2,3,4,5-tetrahydroxy-6-oxohexyl sulfate] | completely clear, colorless solution that foamed when shaken
